Consider one compound from PMC6271870, “Study on the Synthesis, Biological Activity and Spectroscopy of Naphthalimide-Diamine Conjugates” (Molecules, 2014).

The subject of experiment [1] is HepG2 cells. The experiment in a line: Apoptosis by Hoechst 33342 staining, laser scanning confocal microscope. The format is cell-based. The note with it: HepG2, 20 μM, 48 h, 200 cells counted; control less than five percent. From the text:
Apoptosis, or namely programmed cell death, can be triggered by several stimuli. Both naphthalimides and polyamine derivatives could trigger cell apoptosis. In order to determine whether the antitumor-proliferative effect of compound 7f was associated with cell apoptosis, the HepG2 cell apoptosis was detected by the staining of DNA with Hoechst 33342, and the apoptotic cells were counted by selecting 200 cells randomly (Figure 4). The apoptotic bodies were observed clearly in 7f-treated groups by laser scanning confocal microscope. 7f could trigger apoptosis in a dose-dependent manner with the 47.0% apoptotic ratio of 7f at 20 μM compared with the less than five percent in the control group. Exponentially growing HepG2 cells were seeded in 96 well plates (6 × 10^4 cells/well) and treated with indicated concentrations of 7f. After incubated for 48 h, cells were washed three times with PBS, and finally stained with 10 μM Hoechst 33342 in the dark at 37 °C for 20 min. They were detected by laser scanning confocal microscope and the apoptotic cells were count by selecting 200 cells randomly.

Experiment [2] concerns herring sperm DNA. The experiment can be described thus: Iodide (KI) fluorescence quenching in absence and presence of DNA. It counts as binding. Particulars: KI quencher. From the text: A highly negatively charged quencher is expected to be repelled by the negatively charged phosphate backbone of DNA, therefore an intercalative bound drug molecules should be protected from being quenched by anionic quencher, but the free aqueous complexes or groove binding drugs should be quenched readily by anionic quenchers. At the same time, whether the quencher accesses to fluorophore also plays a role in free and bound one.
Negatively charged I^− was selected for this purpose. The quenching constants (Ksv) were obtained from the Stern–Volmer equation. […]
Solution of compound 7f (0.5 mL, 2.00 × 10^−4 mol/L and herring sperm DNA 0.5 mL ([…]) in Tris-HCl (pH = 7.4) were mixed with 0.0, 0.10, 0.20, 0.30, 0.60, 0.90 1.20, 1.50, 1.80, 2.10, 2.40, 2.70 and 3.00 of KI (2.0 × 10^−2 mol∙L^−1) respectively. Meanwhile, 0.5 mL solution of compound 7f (2.00 × 10^−4 mol/L was only mixed with 0.0, 0.10, 0.20, 0.30, 0.60, 0.90 1.20, 1.50, 1.80, 2.10, 2.40, 2.70 and 3.00 mL of KI (2.0 × 10^−2 mol∙L^−1) respectively. The mixture was diluted to 5 mL with Tris-HCl (pH = 7.4). Thus, samples were prepared in the concentration of KI at 0.0, 400, 800, 1,200, 2,400, 3,600, 4,800, 6,000, 7,200, 8,400, 9,600, 10,800, 12,000 × 10^−6 mol∙L^−1. […] Fluorescence wavelengths and intensity areas of samples were measured at following conditions: EX = 345 nm, EM = 355~600 nm.

The subject of experiment [3] is HepG2 cells. The experiment in a line: Cell cycle analysis by High Content Screening (PI staining). The format is cell-based. The note with it: HepG2, 20 μM, 48 h. As to the method:
To reveal the cytotoxic mechanism of compound 7f, we ﬁrst examined its effects on the cell cycle perturbation. The DNA content analysis by High Content Screening (HCS) confirmed that 7f could induce HepG2 cell cycle perturbation (Figure 3).
Exponentially growing HepG2 cells were seeded in 96 well plates ([…]), cultured for 24 h and then treated with different concentrations of compound 7f for 48 h. After incubation for 48 h, cells were washed twice with ice-cold 10% PBS, fixed and permeabilized with ice-cold 70% ethanol at −20 °C overnight. The cells were treated with 50 μg/mL RNase A at room temperature for 30 min after washed with ice-cold PBS, and finally stained with 50 μg/mL propidium iodide (PI) in the dark at 4 °C for 30 min. The distribution of cell cycle phases with different DNA contents was read in image analysis system of high content screening living cells.

Turning to `Cl.Cl.NCCCCNCCCN1C(=O)c2cccc3cccc(c23)C1=O` [Compound 7f, 2-[3-(4-Aminobutylamino)propyl]1H-benz-[de]isoquinoline-1,3(2H)-dione dihydrochloride], the apoptotic ratio in experiment [1] was determined as 47.0%. The “Ksv with I^− ion” value in experiment [2] (absence of DNA, 7f 20 × 10^−6 mol∙L^−1) is 38.178 L/mol; in experiment [2] (presence of DNA 22.84 × 10^−6 mol∙L^−1, 7f 20 × 10^−6 mol∙L^−1), 31.575 L/mol. For the same compound, the “cells in G2/M phase” value in experiment [3] came to 49.8%. For the same compound, in experiment [3] (control 52.6%), the “cells in G0/G1 phase” value turned out to be 29.7%.
